Measured values taken from publication PMC6600542 (Molecules, 2019).
“And” between values parts separate entries of the source, which are not always exact repeats. Equal values may be shown once.

Experiments:
[1] = tested on: normal human plasma; assay: PT clotting assay, normal human plasma; format: biochemical; conditions: for concentration to double the PT: normal human plasma (text)
Procedure: (§1) For the PT assay, thromboplastin-D was reconstituted according to the manufacturer’s directions and warmed to 37 °C. […] After incubation for 4 min at 37 °C, clotting was initiated by adding 100 μL of prewarmed 25 mM CaCl2 and the time to clotting was noted. […] To determine the in vitro effect on the APTT of deficient human plasmas, the APTT assay was repeated, using human plasmas deficient of factor VII (FVII), factor IX (FIX), FXI, or factor XII (FXII). […] The positive control used in APTT and PT assays was rivaroxaban, a clinically used FXa inhibitor. Under the conditions reported, rivaroxaban doubled the APTT and PT at concentrations of 0.123 ± 0.003 µM and 0.193 ± 0.043 µM, respectively.

[2] = tested on: normal human plasma; assay: TT clotting assay, normal human plasma; format: biochemical; conditions: for concentration to double the TT: normal human plasma (text)
[3] = tested on: platelet-aggregation induced by adenosine diphosphate, epinephrine, thrombin, and collagen; conditions: cited from earlier work
[4] = tested on: human plasma deficient of FXI; assay: APTT clotting assay, FXI-deficient plasma; format: biochemical
Procedure: as §1

[5] = molecular target: T1, bovine trypsin (Bos taurus, UniProt P00760); assay: Trypsin chromogenic substrate hydrolysis assay; format: biochemical; conditions: pH 7.4
T1 construct: purchased Millipore-Sigma
Procedure: (§2) Direct inhibition of the human coagulation transglutaminase FXIIIa was also studied using a fluorescence-based transglutamination assay as reported in the literature.
(§3) After 10 min incubation, 5 µL FXIa substrate (6.9 mM stock concentration) was rapidly added and the residual FXIa activity was measured from the initial rate of increase in absorbance at 405 nm. Assays were performed in similar fashion with trypsin and chymotrypsin. Stock concentrations used were 18.9 µg/mL (trypsin) and 22.7 mM (S-2222) for bovine trypsin assay (final volume was 200 µL) and 2 µg/mL (chymotrypsin) and 16.2 mM (N-Succinyl-Ala-Ala-Pro-Phe-p-nitroanilide) for bovine chymotrypsin assay (final volume was 200 µL). The buffer used for FXIa, trypsin, chymotrypsin assays was 50 mM Tris-HCl buffer, pH 7.4, containing 150 mM NaCl, 2.5 mM CaCl2, 0.1% PEG8000, and 0.02% Tween80. Neutrophil elastase inhibition assay was performed in a 96-well plate with a final volume of 100 µl with 0.125 M 4-(2-hydroxyethyl)-1-piperazineethanesulfonic acid (HEPES) buffer, pH 7.4 containing 0.125% Triton-X 100, as reported earlier. […] After incubation, 3 µL neutrophil elastase substrate (S-1384; 25 mM stock conc.) was rapidly added and the residual enzyme activity measured from the initial rate of increase in the absorbance at 405 nm.

[6] = molecular target: T2, guinea pig transglutaminase (UniProt P08587); assay: Guinea pig transglutaminase inhibition; format: biochemical; conditions: at concentrations as high as 500 µM
T2 sequence (P08587 1-690): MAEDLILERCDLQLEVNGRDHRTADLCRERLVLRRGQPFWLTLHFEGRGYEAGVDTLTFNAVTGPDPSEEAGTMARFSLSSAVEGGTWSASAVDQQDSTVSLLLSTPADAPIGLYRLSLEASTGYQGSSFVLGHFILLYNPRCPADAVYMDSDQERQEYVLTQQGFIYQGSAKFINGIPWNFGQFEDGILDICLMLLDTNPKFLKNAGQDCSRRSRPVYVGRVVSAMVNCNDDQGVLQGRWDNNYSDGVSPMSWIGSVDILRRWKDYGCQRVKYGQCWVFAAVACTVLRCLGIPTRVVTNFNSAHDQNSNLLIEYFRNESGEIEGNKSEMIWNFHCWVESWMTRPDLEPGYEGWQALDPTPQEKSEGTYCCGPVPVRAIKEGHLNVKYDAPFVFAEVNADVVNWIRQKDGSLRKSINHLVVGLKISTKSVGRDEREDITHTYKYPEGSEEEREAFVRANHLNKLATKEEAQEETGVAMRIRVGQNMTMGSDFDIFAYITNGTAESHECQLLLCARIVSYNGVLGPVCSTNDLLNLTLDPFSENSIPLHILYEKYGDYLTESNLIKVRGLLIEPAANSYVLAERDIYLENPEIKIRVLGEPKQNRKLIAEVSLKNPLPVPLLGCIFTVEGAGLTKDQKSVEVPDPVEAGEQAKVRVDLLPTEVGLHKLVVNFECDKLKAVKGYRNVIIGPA

[7] = set-up: method as in PMID 3491164, PMID 3680992, PMID 1984463; conditions: patients; read-out: means of plasma CMAX; cited from earlier work
[8] = molecular target: T3, bovine chymotrypsin (Bos taurus, UniProt P00766); assay: Chymotrypsin chromogenic substrate hydrolysis assay; format: biochemical; conditions: pH 7.4
T3 construct: purchased Millipore-Sigma
Procedure: as §2, §3

[9] = molecular target: T4, human neutrophil elastase (Homo sapiens, UniProt P08246); assay: Neutrophil elastase chromogenic substrate hydrolysis assay; format: biochemical; conditions: pH 7.4
T4 construct: purchased Elastin Products Company
T4 sequence (P08246 30-247 limits assumed): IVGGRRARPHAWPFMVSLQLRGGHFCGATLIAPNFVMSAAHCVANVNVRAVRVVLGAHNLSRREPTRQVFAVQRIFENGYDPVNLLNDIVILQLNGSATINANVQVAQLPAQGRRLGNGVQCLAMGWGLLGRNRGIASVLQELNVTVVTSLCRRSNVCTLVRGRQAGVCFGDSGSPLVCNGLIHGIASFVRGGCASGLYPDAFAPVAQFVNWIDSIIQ
Procedure: as §2, §3

T1 sequence (P00760 24-246): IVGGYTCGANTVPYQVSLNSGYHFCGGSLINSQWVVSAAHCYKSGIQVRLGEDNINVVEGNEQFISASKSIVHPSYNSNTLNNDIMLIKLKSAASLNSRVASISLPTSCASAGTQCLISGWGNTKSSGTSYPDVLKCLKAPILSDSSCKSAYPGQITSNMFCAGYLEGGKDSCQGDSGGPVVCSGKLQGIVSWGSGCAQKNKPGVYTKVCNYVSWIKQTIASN

## N=C(N)c1ccc(OCCCCCOc2ccc(C(=N)N)cc2)cc1 [pentamidine isethionate, 4,4′-(pentane-1,5-diylbis(oxy))-dibenzimidamide]
[1]; PT assay, normal human plasma
  PTEC2×, concentration to double clotting time: 45.70 ± 0.85 µm
[1]
  concentration to double the PT: 45.7 µM and 45.70 ± 0.85 µM
[1]; listed as pentamidine
  concentration to double the PT: lower than 50 µM
[2]; TT assay, normal human plasma
  TTEC2×, concentration to double clotting time: 158.17 ± 30.87 µm
[2]
  concentration to double the TT: 158.17 µM and 158.17 ± 30.87 µM
[2]; listed as pentamidine
  concentration to double the TT: > 150 µM
[3]
  concentration that completely inhibited platelet-aggregation: greater than 8.4 µM
[4]
  APTTEC2×, concentration to double clotting time: 29.48 ± 3.88 µm
[5]
  HS: 1.0 ± 0.2
  IC50: 4.9 ± 0.8 µM
  ∆Y (efficacy): 116.8 ± 7.4%
[6]
  inhibition of guinea pig transglutaminase: did not inhibit
[7]
  Cmax: ≤ 1000 nM
[8]
  IC50: > 1750 µM
[9]
  IC50: > 100 µM
